In ChEMBL document CHEMBL1132261, “Pneumocystis carinii and Toxoplasma gondii dihydrofolate reductase inhibitors and antitumor agents: synthesis and biological activities of 2,4-diamino-5-methyl-6-[(monosubstituted anilino)methyl] pyrido[2,3-d]pyrimidines” (J Med Chem, 1999):

Experiments:
Dihydrofolate reductase [1] = target: T1, Dihydrofolate reductase (Pneumocystis carinii, UniProt P16184)
T1 sequence (P16184 whole entry): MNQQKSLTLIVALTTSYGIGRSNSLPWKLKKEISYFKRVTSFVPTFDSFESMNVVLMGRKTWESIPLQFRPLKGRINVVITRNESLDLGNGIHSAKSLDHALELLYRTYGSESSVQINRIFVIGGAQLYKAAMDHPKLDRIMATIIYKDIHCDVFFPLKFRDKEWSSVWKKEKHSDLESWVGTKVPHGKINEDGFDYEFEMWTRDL
Description: Inhibition of dihydrofolate reductase (DHFR) from Pneumocystis carinii(pc)

[2] = target: T2, Bifunctional dihydrofolate reductase-thymidylate synthase (Toxoplasma gondii, UniProt Q07422); test: Inhibition of dihydrofolate reductase (DHFR) from Toxoplasma gondii(tg)
T2 sequence (Q07422 whole entry): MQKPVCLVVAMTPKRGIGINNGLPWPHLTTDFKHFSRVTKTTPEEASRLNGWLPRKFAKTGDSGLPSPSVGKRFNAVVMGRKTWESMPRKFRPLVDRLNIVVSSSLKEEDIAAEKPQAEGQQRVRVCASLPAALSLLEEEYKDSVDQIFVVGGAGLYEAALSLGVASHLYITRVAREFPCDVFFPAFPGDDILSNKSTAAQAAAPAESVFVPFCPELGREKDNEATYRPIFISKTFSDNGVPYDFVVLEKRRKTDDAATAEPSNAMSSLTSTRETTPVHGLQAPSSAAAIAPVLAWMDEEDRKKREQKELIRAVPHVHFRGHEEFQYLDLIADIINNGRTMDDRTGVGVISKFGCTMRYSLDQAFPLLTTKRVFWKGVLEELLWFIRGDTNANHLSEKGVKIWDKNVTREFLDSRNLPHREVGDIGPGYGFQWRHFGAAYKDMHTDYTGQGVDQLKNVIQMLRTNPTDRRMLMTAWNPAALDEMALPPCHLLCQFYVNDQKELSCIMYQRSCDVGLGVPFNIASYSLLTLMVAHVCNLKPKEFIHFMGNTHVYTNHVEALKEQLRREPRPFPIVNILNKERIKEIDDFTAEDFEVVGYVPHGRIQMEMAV

Dihydrofolate reductase [3] = target: T3, Dihydrofolate reductase (Rattus norvegicus, UniProt Q920D2)
T3 sequence (Q920D2 whole entry): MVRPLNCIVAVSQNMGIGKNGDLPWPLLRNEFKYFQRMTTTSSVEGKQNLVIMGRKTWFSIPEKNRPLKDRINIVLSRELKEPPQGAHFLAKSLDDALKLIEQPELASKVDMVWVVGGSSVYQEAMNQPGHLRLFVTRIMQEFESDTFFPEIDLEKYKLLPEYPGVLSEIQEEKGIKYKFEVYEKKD
Description: Inhibition of dihydrofolate reductase (DHFR) from rat liver (rl)

Toxoplasma gondii = test: Inhibitory concentration of cell growth from Toxoplasma gondii; type: functional, organism-based
[4] = The compound was tested for ratio of inhibition of cell growth and dihydrofolate reductase(DHFR); type: functional
[5] = Log Ko/w value by LOGKOW program.; type: ADME; conditions: octanol/water; read-out: Log Ko/w
[6] = The compound was tested for ratio of inhibition of dihydrofolate reductase(DHFR) from rat(rl) liver and Pneumocystis carinii(pc)
[7] = The compound was tested for ratio of inhibition of dihydrofolate reductase(DHFR) from rat(rl) liver and Toxoplasma gondii(tg)

| IC50 (Dihydrofolate reductase [1]) | IC50 (Dihydrofolate reductase [3]) | logP [5] | Ratio [6] | Compound | IC50 [2] | IC50 (Toxoplasma gondii) | Ratio [4] | Ratio [7] |
| --- | --- | --- | --- | --- | --- | --- | --- | --- |
| 80 nM | 170 nM | 1.79 | – | Cc1c(CNc2ccccc2)cnc2nc(N)nc(N)c12 | 17 nM | 317 nM | 19 | – |
| 29 nM | 26 nM | – | – | Cc1c(CN(C)c2ccc(Cl)cc2)cnc2nc(N)nc(N)c12 | 5.4 nM | – | – | – |
| 80.8 nM | 34.9 nM | – | – | Cc1c(CNc2ccc(Br)cc2)cnc2nc(N)nc(N)c12 | 9.5 nM | – | – | – |
| 68.9 nM | 80.1 nM | 2.14 | – | COc1cccc(NCc2cnc3nc(N)nc(N)c3c2C)c1 | 7.4 nM | 371 nM | 50 | – |
| 47 nM | 88 nM | 2.35 | – | Cc1c(CNc2ccccc2Cl)cnc2nc(N)nc(N)c12 | 7.1 nM | 58 nM | 8 | – |
| 55.4 nM | 51 nM | – | – | Cc1c(CNc2ccc(Cl)cc2)cnc2nc(N)nc(N)c12 | 19 nM | – | – | – |
| 117 nM | 169 nM | – | – | COc1ccccc1NCc1cnc2nc(N)nc(N)c2c1C | 23 nM | – | – | – |
| 23 nM | 37 nM | – | – | Cc1c(CNc2cccc(Cl)c2)cnc2nc(N)nc(N)c12 | 11 nM | – | – | – |
| 84 nM | 100 nM | – | – | Cc1c(CN(C)c2ccccc2Cl)cnc2nc(N)nc(N)c12 | 18 nM | – | – | – |
| 35 nM | 13 nM | – | – | COc1ccc(N(C)Cc2cnc3nc(N)nc(N)c3c2C)cc1 | 7.3 nM | – | – | – |
| – | – | 2.42 | – | COc1ccc(OC)c(N(C)Cc2cnc3nc(N)nc(N)c3c2C)c1 | – | – | 35 | – |
| 30 nM | 18 nM | – | – | COc1cccc(N(C)Cc2cnc3nc(N)nc(N)c3c2C)c1 | 6.3 nM | – | – | – |
| – | – | 1.76 | – | COc1cc(N(C)Cc2cnc3nc(N)nc(N)c3c2C)cc(OC)c1OC | – | – | – | – |
| – | – | – | 0.1 | COc1ccc(N(C)Cc2cnc3nc(N)nc(N)c3c2C)cc1OC | – | – | – | 1.5 |
| 37 nM | 36 nM | – | – | Cc1c(CN(C)c2ccc(Br)cc2)cnc2nc(N)nc(N)c12 | 30 nM | – | – | – |
| 95.4 nM | 55.6 nM | – | – | COc1ccc(NCc2cnc3nc(N)nc(N)c3c2C)cc1 | 12 nM | – | – | – |
| – | 44 nM | – | – | COc1ccc(NCc2cnc3nc(N)nc(N)c3c2C)cc1OC | – | – | – | – |
